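All cell lines were grown in 96-well plates and treated with compound for 48 hours. At the GI50, growth is halved.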 The source made the active and inactive calls. Cut-off read from the data, not from the text of the source: active = GI50 up to about 1.1 µM and inactive = higher.
Key:
Test in all cases: DTP human tumour cell line panel, 48 h
COLO 205 = tested on: COLO 205
RXF 393 = tested on: RXF 393
786-0 = tested on: 786-0
SF-539 = tested on: SF-539
SN12C = tested on: SN12C
MCF7 = tested on: MCF7
MDA-N = tested on: MDA-N
CCRF-CEM = tested on: CCRF-CEM
HOP-92 = tested on: HOP-92
DU-145 = tested on: DU-145
BT-549 = tested on: BT-549
SK-MEL-28 = tested on: SK-MEL-28
NCI-H226 = tested on: NCI-H226
OVCAR-8 = tested on: OVCAR-8
PC-3 = tested on: PC-3
A498 = tested on: A498
SNB-19 = tested on: SNB-19
SK-MEL-5 = tested on: SK-MEL-5
UO-31 = tested on: UO-31
UACC-62 = tested on: UACC-62
EKVX = tested on: EKVX
IGROV-1 = tested on: IGROV-1
MDA-MB-435 = tested on: MDA-MB-435
HCT-15 = tested on: HCT-15
SR = tested on: SR
ACHN = tested on: ACHN
U-251 = tested on: U-251
M14 = tested on: M14
HOP-62 = tested on: HOP-62
CAKI-1 = tested on: CAKI-1
NCI/ADR-RES = tested on: NCI/ADR-RES
SW-620 = tested on: SW-620
HT-29 = tested on: HT-29
OVCAR-3 = tested on: OVCAR-3
LOX IMVI = tested on: LOX IMVI
OVCAR-4 = tested on: OVCAR-4
UACC-257 = tested on: UACC-257
SNB-75 = tested on: SNB-75
A549 = tested on: A549
K562 = tested on: K562
NCI-H23 = tested on: NCI-H23
MOLT-4 = tested on: MOLT-4
SK-MEL-2 = tested on: SK-MEL-2
NCI-H460 = tested on: NCI-H460
RPMI-8226 = tested on: RPMI-8226
MDA-MB-231 = tested on: MDA-MB-231
KM12 = tested on: KM12
HCT-116 = tested on: HCT-116
T47D = tested on: T47D
HCC 2998 = tested on: HCC 2998
OVCAR-5 = tested on: OVCAR-5
SF-295 = tested on: SF-295
TK-10 = tested on: TK-10
SK-OV-3 = tested on: SK-OV-3

CC1(C)OCC2OC3([C@H]4OC(C)(C)O[C@@H]4CO)OC(C)(C)OC3C2O1 (stereo not given in full)
GI50 (COLO 205): > 100 µM (inactive)
GI50 (RXF 393): > 100 µM (inactive)
GI50 (786-0): > 100 µM (inactive)
GI50 (SF-539): > 100 µM (inactive)
GI50 (SN12C): > 100 µM (inactive)
GI50 (MCF7): > 100 µM (inactive)
GI50 (MDA-N): > 100 µM (inactive)
GI50 (CCRF-CEM): > 100 µM (inactive)
GI50 (HOP-92): > 100 µM (inactive)
GI50 (DU-145): > 100 µM (inactive)
GI50 (BT-549): > 100 µM (inactive)
GI50 (SK-MEL-28): > 100 µM (inactive)
GI50 (NCI-H226): > 100 µM (inactive)
GI50 (OVCAR-8): > 100 µM (inactive)
GI50 (PC-3): > 100 µM (inactive)
GI50 (A498): > 100 µM (inactive)
GI50 (SNB-19): > 100 µM (inactive)
GI50 (SK-MEL-5): > 100 µM (inactive)
GI50 (UO-31): > 100 µM (inactive)
GI50 (UACC-62): > 100 µM (inactive)
GI50 (EKVX): > 100 µM (inactive)
GI50 (IGROV-1): > 100 µM (inactive)
GI50 (MDA-MB-435): > 100 µM (inactive)
GI50 (HCT-15): > 100 µM
GI50 (SR): > 100 µM (inactive)
GI50 (ACHN): > 100 µM (inactive)
GI50 (U-251): > 100 µM (inactive)
GI50 (M14): > 100 µM (inactive)
GI50 (HOP-62): > 100 µM (inactive)
GI50 (CAKI-1): > 100 µM (inactive)
GI50 (NCI/ADR-RES): > 100 µM (inactive)
GI50 (SW-620): > 100 µM (inactive)
GI50 (HT-29): > 100 µM (inactive)
GI50 (OVCAR-3): > 100 µM (inactive)
GI50 (LOX IMVI): > 100 µM (inactive)
GI50 (OVCAR-4): > 100 µM (inactive)
GI50 (UACC-257): > 100 µM (inactive)
GI50 (SNB-75): > 100 µM (inactive)
GI50 (A549): > 100 µM (inactive)
GI50 (K562): > 100 µM (inactive)
GI50 (NCI-H23): > 100 µM (inactive)
GI50 (MOLT-4): > 100 µM (inactive)
GI50 (SK-MEL-2): > 100 µM (inactive)
GI50 (NCI-H460): > 100 µM (inactive)
GI50 (RPMI-8226): > 100 µM (inactive)
GI50 (MDA-MB-231): > 100 µM (inactive)
GI50 (KM12): > 100 µM (inactive)
GI50 (HCT-116): > 100 µM (inactive)
GI50 (T47D): > 100 µM (inactive)
GI50 (HCC 2998): > 100 µM (inactive)
GI50 (OVCAR-5): > 100 µM (inactive)
GI50 (SF-295): > 100 µM (inactive)

CCCNC(=S)N/C=C1/C(=O)C=C(C)OC1=O
GI50 (COLO 205): > 100 µM (inactive)
GI50 (786-0): > 100 µM (inactive)
GI50 (SF-539): > 100 µM (inactive)
GI50 (SN12C): > 100 µM (inactive)
GI50 (MCF7): > 100 µM (inactive)
GI50 (MDA-N): > 100 µM (inactive)
GI50 (HOP-92): > 100 µM (inactive)
GI50 (DU-145): > 100 µM (inactive)
GI50 (BT-549): > 100 µM (inactive)
GI50 (SK-MEL-28): > 100 µM (inactive)
GI50 (NCI-H226): > 100 µM (inactive)
GI50 (OVCAR-8): > 100 µM (inactive)
GI50 (PC-3): > 100 µM (inactive)
GI50 (SNB-19): > 100 µM (inactive)
GI50 (SK-MEL-5): > 100 µM (inactive)
GI50 (UO-31): > 100 µM (inactive)
GI50 (UACC-62): > 100 µM (inactive)
GI50 (EKVX): > 100 µM (inactive)
GI50 (IGROV-1): > 100 µM (inactive)
GI50 (MDA-MB-435): > 100 µM (inactive)
GI50 (HCT-15): > 100 µM
GI50 (TK-10): 26.7 µM (inactive)
GI50 (ACHN): > 100 µM (inactive)
GI50 (U-251): > 100 µM (inactive)
GI50 (M14): > 100 µM (inactive)
GI50 (HOP-62): > 100 µM (inactive)
GI50 (CAKI-1): > 100 µM (inactive)
GI50 (NCI/ADR-RES): > 100 µM (inactive)
GI50 (SW-620): > 100 µM (inactive)
GI50 (HT-29): > 100 µM (inactive)
GI50 (OVCAR-3): > 100 µM (inactive)
GI50 (LOX IMVI): > 100 µM (inactive)
GI50 (OVCAR-4): > 100 µM (inactive)
GI50 (UACC-257): > 100 µM (inactive)
GI50 (SNB-75): > 100 µM (inactive)
GI50 (A549): > 100 µM (inactive)
GI50 (NCI-H23): > 100 µM (inactive)
GI50 (MOLT-4): > 100 µM (inactive)
GI50 (SK-MEL-2): > 100 µM (inactive)
GI50 (NCI-H460): > 100 µM (inactive)
GI50 (SK-OV-3): > 100 µM (inactive)
GI50 (MDA-MB-231): > 100 µM (inactive)
GI50 (KM12): > 100 µM (inactive)
GI50 (HCT-116): > 100 µM (inactive)
GI50 (T47D): > 100 µM (inactive)
GI50 (HCC 2998): > 100 µM (inactive)
GI50 (OVCAR-5): > 100 µM (inactive)
GI50 (SF-295): > 100 µM (inactive)

Source: ChEMBL document CHEMBL1201862, “PubChem BioAssay data set” (2004)
